Article PMC6694155, “PTPσ inhibitors promote hematopoietic stem cell regeneration” (Nature Communications, 2019)
Where “and” joins values, the source holds several entries; their conditions need not be identical. Equal values may be shown once.

How the values were obtained:
[1] = Pharmacokinetic study for DJ001; assay type: in vivo, mouse; settings: for concentration of DJ001 in the peripheral blood: 5 mg/kg single subcutaneous dose
Procedure: PK studies for DJ001 were performed at Cyprotex (Study Number CYP1426-R1) under non-good laboratory practice conditions. Mice were subcutaneously injected with a single dose of 5 mg/kg DJ001 (in 10% DMSO, 40% phosphate-buffered saline (PBS), 50% polyethylene glycol and plasma samples were collected at 0.08, 0.25, 0.5, 1, 2, 4, 8, and 24 h. Samples were crashed with three volumes of methanol and analytical internal standard (propranolol). Supernatant was subjected to liquid chromatography-mass spectrometry/mass spectrometry (MS/MS) using an acetonitrile-water gradient system and electrospray ionization in multiple reaction monitoring mode for MS detection. All plasma samples were compared with an internal calibration curve prepared in mouse blank plasma.

[2] = target: T1, PPα (Protein Phosphatase 1 Catalytic Subunit alpha) (Homo sapiens, UniProt P62136); assay: PhosphataseProfiler screen: PPα; assay type: biochemical; settings: replicates
T1 construct: purchased Eurofins Pharma Discovery Services UK
T1 sequence (P62136 whole entry): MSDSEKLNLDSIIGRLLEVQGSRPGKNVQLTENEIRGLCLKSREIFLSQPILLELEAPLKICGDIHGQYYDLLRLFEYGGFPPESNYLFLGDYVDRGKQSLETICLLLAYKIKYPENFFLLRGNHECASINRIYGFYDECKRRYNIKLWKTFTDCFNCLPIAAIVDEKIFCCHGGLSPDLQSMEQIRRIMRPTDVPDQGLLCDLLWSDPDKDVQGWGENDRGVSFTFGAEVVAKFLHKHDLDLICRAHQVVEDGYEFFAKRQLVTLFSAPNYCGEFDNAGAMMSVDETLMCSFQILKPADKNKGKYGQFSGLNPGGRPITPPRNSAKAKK
Procedure: (§1) Compound DJ001 was evaluated in a PhosphataseProfiler™ screen at 10 μM and 1 μM (2.7 μg/mL and 0.27 μg/mL) concentrations at Eurofins Pharma Discovery Services UK (Study number UK022-0004033) against a panel of 21 Phosphatases. In each experiment, the respective reference antagonist/agonist was tested directly with DJ001 and the data were compared with historical values determined at Eurofins. DJ001 compound inhibition was calculated as percentage inhibition of the enzymatic activity compared with control.

[3] = system: human BM CD34+ cells; assay: Recovery of CD34+CD38− cells from 300 cGy-irradiated human BM CD34+ cells; assay type: cell-based; settings: 36 h, 5 µg/mL DJ001
[4] = target: T2, RPTPμ (Receptor Protein Tyrosine Phosphatase Mu) (Homo sapiens, UniProt P28827); assay: PhosphataseProfiler screen: RPTPμ; assay type: biochemical; settings: replicates
T2 construct: purchased Eurofins Pharma Discovery Services UK
T2 sequence (P28827 21-1452, species assumed): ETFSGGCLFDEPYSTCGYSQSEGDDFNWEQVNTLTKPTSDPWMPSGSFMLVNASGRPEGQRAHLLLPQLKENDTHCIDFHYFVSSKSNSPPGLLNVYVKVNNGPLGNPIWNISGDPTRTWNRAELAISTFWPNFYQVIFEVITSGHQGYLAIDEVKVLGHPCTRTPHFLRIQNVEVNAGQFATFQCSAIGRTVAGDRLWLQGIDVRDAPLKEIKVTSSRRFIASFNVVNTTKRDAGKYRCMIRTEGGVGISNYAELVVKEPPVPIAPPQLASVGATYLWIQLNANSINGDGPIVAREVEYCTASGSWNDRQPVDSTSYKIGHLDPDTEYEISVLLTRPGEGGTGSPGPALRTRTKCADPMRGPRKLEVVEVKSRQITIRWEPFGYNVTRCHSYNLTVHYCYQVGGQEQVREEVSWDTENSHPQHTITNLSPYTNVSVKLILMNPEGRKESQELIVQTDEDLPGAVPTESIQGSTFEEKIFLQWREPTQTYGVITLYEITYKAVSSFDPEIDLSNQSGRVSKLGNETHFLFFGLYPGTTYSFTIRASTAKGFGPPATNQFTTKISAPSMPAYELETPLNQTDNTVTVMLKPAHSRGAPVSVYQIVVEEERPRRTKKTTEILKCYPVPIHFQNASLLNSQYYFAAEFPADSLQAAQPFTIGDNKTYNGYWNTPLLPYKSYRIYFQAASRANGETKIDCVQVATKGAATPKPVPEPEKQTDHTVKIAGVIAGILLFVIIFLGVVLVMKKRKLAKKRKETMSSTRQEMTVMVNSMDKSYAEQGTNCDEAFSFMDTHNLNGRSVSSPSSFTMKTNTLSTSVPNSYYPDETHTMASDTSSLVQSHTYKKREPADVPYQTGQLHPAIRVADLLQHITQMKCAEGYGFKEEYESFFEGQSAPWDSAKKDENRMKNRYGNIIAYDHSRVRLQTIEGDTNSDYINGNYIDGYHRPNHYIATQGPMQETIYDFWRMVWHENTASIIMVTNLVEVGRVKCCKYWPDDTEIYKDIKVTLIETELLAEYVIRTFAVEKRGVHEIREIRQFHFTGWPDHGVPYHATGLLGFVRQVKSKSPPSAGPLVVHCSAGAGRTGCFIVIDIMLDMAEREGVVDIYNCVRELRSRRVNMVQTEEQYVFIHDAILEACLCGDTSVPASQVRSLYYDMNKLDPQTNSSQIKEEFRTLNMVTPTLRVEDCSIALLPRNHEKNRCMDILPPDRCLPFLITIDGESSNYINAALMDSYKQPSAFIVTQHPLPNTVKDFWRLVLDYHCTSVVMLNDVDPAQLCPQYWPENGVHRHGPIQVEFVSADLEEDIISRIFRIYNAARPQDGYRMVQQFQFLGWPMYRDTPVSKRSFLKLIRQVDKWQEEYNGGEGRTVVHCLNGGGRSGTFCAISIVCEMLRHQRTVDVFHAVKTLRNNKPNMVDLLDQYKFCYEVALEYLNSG
Procedure: as §1

[5] = system: BM KSL cells; assay: Cytokine analysis in vitro (BM KSL cell culture supernatants); assay type: cell-based, mouse; design: PTN: unit not given beside the values; IL-5 / IL-6 / IL-9 / IL-10 / IL-12(p40) / IL-12(p70) / IL-13 / IL-17 / IP-10 / CXCL12 / EGF / DKK / G-CSF / Eotaxin / GM-CSF / KC / MCP-1 / MIP-1a / M-CSF / MIP-2 / MIG / RANTES / VEGF / TNF-a / IFN-g / IL-1a / IL-1b / IL-2 / IL-4 / IL-3: unit not given here; settings: for IFN-g / IL-1a / IL-1b / IL-2 / IL-3 / IL-4 / IL-5 / IL-6 / IL-9 / IL-10 / IL-12(p40) / IL-12(p70) / IL-13 / IL-17 / IP-10: Supplementary Figure 6a; for CXCL12 / DKK / EGF / Eotaxin / G-CSF / GM-CSF / KC / M-CSF / MCP-1 / MIG / MIP-1a / MIP-2 / PTN / RANTES / TNF-a / VEGF: Supplementary Figure 6b
Procedure: For in vitro cytokine measurements, 3.5 × 10^4 BM KSL cells were irradiated with 300 cGy and cultured in TSF media with and without 1 μg/mL DJ001. Non-irradiated KSL cells were cultured in TSF media with and without 1 μg/mL DJ001. At 12 h of culture, culture supernatants were collected for analysis. For in vivo cytokine measurements, adult C57BL/6 mice were irradiated with 750 cGy TBI and then treated with 5 mg/kg of DJ001 or vehicle, subcutaneously, from day + 1 to day + 5. Non-irradiated mice received the identical regimen of 5 mg/kg DJ001 or vehicle for 5 days. Mice were killed and BM cells were collected into IMDM. Cells were pelleted and the BM supernatant was collected and sent to the UCLA Immune Assessment Core for cytokine analysis. All samples were tested on a mouse 32-plex Cytokine/Chemokine panel platform from EMD Milipore using Luminex’s xMAP® immunoassay technology (Luminex, Inc.). In addition, the following cytokine levels were assessed by solid-phase ELISA assay according to the manufacturer’s description: CXCL12 (R&D Systems), SCF (R&D Systems), Thrombopoietin (TPO) (R&D Systems), PTN (Biomatik), DKK1 (R&D Systems), and EGF (R&D Systems).

[6] = target: T3, SHP-2 (Protein-Tyrosine Phosphatase 2C) (Homo sapiens, UniProt Q06124); assay: PhosphataseProfiler screen: SHP-2; assay type: biochemical; settings: replicates
T3 construct: purchased Eurofins Pharma Discovery Services UK
T3 sequence (Q06124 whole entry, species assumed): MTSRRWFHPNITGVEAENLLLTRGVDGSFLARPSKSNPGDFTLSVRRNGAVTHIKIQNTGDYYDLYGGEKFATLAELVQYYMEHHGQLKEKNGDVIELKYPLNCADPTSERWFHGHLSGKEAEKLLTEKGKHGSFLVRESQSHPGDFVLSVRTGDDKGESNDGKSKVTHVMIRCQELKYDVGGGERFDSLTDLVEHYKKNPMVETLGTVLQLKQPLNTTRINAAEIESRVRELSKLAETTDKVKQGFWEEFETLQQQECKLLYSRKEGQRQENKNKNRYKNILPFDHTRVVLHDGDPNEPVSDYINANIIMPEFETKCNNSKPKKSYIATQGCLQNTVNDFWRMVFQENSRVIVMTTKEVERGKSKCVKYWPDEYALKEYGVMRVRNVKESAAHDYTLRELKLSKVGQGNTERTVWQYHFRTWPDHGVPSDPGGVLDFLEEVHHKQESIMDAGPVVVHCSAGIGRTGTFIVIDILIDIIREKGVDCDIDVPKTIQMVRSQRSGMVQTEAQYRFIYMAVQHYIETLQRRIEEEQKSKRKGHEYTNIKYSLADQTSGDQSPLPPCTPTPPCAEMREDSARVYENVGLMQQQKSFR
Procedure: as §1

O=C(/C=C\Nc1cccc([N+](=O)[O-])c1)c1ccccc1 [DJ001, (Z)-3-((3-nitrophenyl)amino)-1-phenylprop-2-en-1-one]
concentration of DJ001 in the peripheral blood ([1]; through + 24 hours following administration): approximately 10 ng/ml
concentration of DJ001 in the peripheral blood ([1]; within 1 hour after administration): 100 ng/mL
DJ001 concentrations in the PB ([1]; 5 mg/kg subcutaneously × 1, over several hours post injection): 10 to 100 ng/mL
Supplementary Figure 4f: Concentration ([1]; 0.08 Hours, individual mice): 170 ng/mL and 54.7 ng/mL and 61.1 ng/mL
Supplementary Figure 4f: Concentration ([1]; 0.25 Hours, individual mice): 159 ng/mL and 93.5 ng/mL
Supplementary Figure 4f: Concentration ([1]; 0.5 Hours, individual mice): 113 ng/mL and 133 ng/mL and 60.5 ng/mL
Supplementary Figure 4f: Concentration ([1]; 1 Hours, individual mice): 40.5 ng/mL and 40.7 ng/mL
Supplementary Figure 4f: Concentration ([1]; 2 Hours, individual mice): 35.3 ng/mL and 19.5 ng/mL
Supplementary Figure 4f: Concentration ([1]; 4 Hours, individual mice): 5.8 ng/mL and 6.7 ng/mL
Supplementary Figure 4f: Concentration ([1]; 8 Hours, individual mice): 1.7 ng/mL and 7.8 ng/mL and 12.4 ng/mL
Supplementary Figure 4f: Concentration ([1]; 24 Hours, individual mice): 2.8 ng/mL and 2.3 ng/mL and 8.9 ng/mL
concentration at 0.25 h ([1]; C57BL/6, mouse, plasma, subcutaneous, 5 mg/kg, 0.25 Hours, individual mice, read-out: Supplementary Figure 4f: Concentration): 113 ng/mL
concentration at 1 h ([1]; C57BL/6, mouse, plasma, subcutaneous, 5 mg/kg, 1 Hours, individual mice, read-out: Supplementary Figure 4f: Concentration): 79.5 ng/mL
concentration at 2 h ([1]; C57BL/6, mouse, plasma, subcutaneous, 5 mg/kg, 2 Hours, individual mice, read-out: Supplementary Figure 4f: Concentration): 32.9 ng/mL
concentration at 4 h ([1]; C57BL/6, mouse, plasma, subcutaneous, 5 mg/kg, 4 Hours, individual mice, read-out: Supplementary Figure 4f: Concentration): 6.5 ng/mL
Supplementary Figure 1: PP activity ([2]; 2.7 μg/mL DJ001): 87 and 90 and 89
Supplementary Figure 1: PP activity ([2]; 0.27 g/mL DJ001): 99 and 95 (2×)
recovery of viable human BM CD34+CD38− cells following irradiation [3]: increased the recovery
Supplementary Figure 1: RPTP activity ([4]; 2.7 μg/mL DJ001): 83 and 98 and 86
Supplementary Figure 1: RPTP activity ([4]; 0.27 g/mL DJ001): 92 and 99 and 95
IFN-g ([5]; 300cGy): 0.77
IL-1a ([5]; 300cGy): 2.07 and 2.11
IL-1b ([5]; 300cGy): 1.39
IL-2 ([5]; 300cGy): 2.9
IL-3 ([5]; 300cGy): 1
IL-4 ([5]; 300cGy): 0.44
IL-5 ([5]; 300cGy): 2.67
IL-6 ([5]; 300cGy): 0.77 and 1.04
IL-9 ([5]; 300cGy): 36.91
IL-10 ([5]; 300cGy): 2.29
IL-12(p40) ([5]; 300cGy): 1.77 and 1.44 and 2.31
IL-12(p70) ([5]; 300cGy): 3.42
IL-13 ([5]; 300cGy): 9.36
IL-17 ([5]; 300cGy): 1.92
IP-10 ([5]; 300cGy): 2.77
CXCL12 ([5]; 300cGy): 0
DKK ([5]; 300cGy): 0
EGF ([5]; 300cGy): 0
Eotaxin ([5]; 300cGy): 2.69
G-CSF ([5]; 300cGy): 0.01
GM-CSF ([5]; 300cGy): 5.03
KC ([5]; 300cGy): 1.04
M-CSF ([5]; 300cGy): 1.85 and 2.24
MCP-1 ([5]; 300cGy): 4.52
MIG ([5]; 300cGy): 3.11
MIP-1a ([5]; 300cGy): 5.42 and 8.81
MIP-2 ([5]; 300cGy): 16
PTN ([5]; 300cGy): 10.6601 and 9.687 and 10.9496
RANTES ([5]; 300cGy): 3.97
TNF-a ([5]; 300cGy): 4.73
VEGF ([5]; 300cGy): 1.18
LIX levels following irradiation ([5]; BM KSL cells, 12 h after 300 cGy, 1 μg/mL DJ001): decreased LIX levels
other cytokines in vitro ([5]; BM KSL cells, 12 h culture, 1 μg/mL DJ001): no effects on any other cytokines
IFN-g ([5]; NI (non-irradiated)): 0.77
IL-1a ([5]; NI (non-irradiated)): 2.07
IL-1b ([5]; NI (non-irradiated)): 1.39
IL-2 ([5]; NI (non-irradiated)): 2.9
IL-3 ([5]; NI (non-irradiated)): 1
IL-4 ([5]; NI (non-irradiated)): 0.44
IL-5 ([5]; NI (non-irradiated)): 2.67
IL-6 ([5]; NI (non-irradiated)): 0.77 and 1.04
IL-9 ([5]; NI (non-irradiated)): 36.91
IL-10 ([5]; NI (non-irradiated)): 2.29
IL-12(p40) ([5]; NI (non-irradiated)): 1.13 and 2.12 and 1.6
IL-12(p70) ([5]; NI (non-irradiated)): 3.42
IL-13 ([5]; NI (non-irradiated)): 9.36
IL-17 ([5]; NI (non-irradiated)): 1.92
IP-10 ([5]; NI (non-irradiated)): 2.77
CXCL12 ([5]; NI (non-irradiated)): 0
DKK ([5]; NI (non-irradiated)): 0
EGF ([5]; NI (non-irradiated)): 0
Eotaxin ([5]; NI (non-irradiated)): 2.69
G-CSF ([5]; NI (non-irradiated)): 0.01
GM-CSF ([5]; NI (non-irradiated)): 5.03
KC ([5]; NI (non-irradiated)): 1.04
M-CSF ([5]; NI (non-irradiated)): 1.85 and 2.71
MCP-1 ([5]; NI (non-irradiated)): 4.52
MIG ([5]; NI (non-irradiated)): 3.11
MIP-1a ([5]; NI (non-irradiated)): 5.42 and 8.81
MIP-2 ([5]; NI (non-irradiated)): 16
PTN ([5]; NI (non-irradiated)): 11.0625 and 10.3876 and 11.8896
RANTES ([5]; NI (non-irradiated)): 3.97
TNF-a ([5]; NI (non-irradiated)): 4.73
VEGF ([5]; NI (non-irradiated)): 1.18
Supplementary Figure 1: SHP-2 activity ([6]; 0.27 μg/mL DJ001): 99 and 96 and 102
Supplementary Figure 1: SHP-2 activity ([6]; 2.7 μg/mL DJ001): 87 and 90 and 94
